The results in this text go back to US7667036B2, “Pyrazolo[1,5-a]pyrimidine derivatives” (Teijin Pharma Limited, priority 2004, dated 2010).

Molecules are shown by their SMILES.

Assay [1] has as its target T1, MAPKAP-K2 (Homo sapiens, UniProt P49137). The assay can be described thus: MAPKAP-K2 enzyme activity inhibition assay, Method A (33P-ATP, P81 filter plate). Type of assay: biochemical. The note with it: 10 μmol/L ATP, 30 μmol/L peptide KKLNRTLSVA, 3% DMSO, 30 min room temperature, read-out: Inhibitory activity (MAPKAP-K2 IC50 class). The method, then: (§1) The assay of inhibitory activity was performed according to Method A described below for Compound No. 1, 2, 3, 4, 20, 21, 22, 23, 24, 25, 26, 79, 80 and 81, and Method B described below for the other compounds.
A compound was dissolved in DMSO to make its concentration to 10 mmol/L, and further a part of the resulting solution was taken out and stored at −20° C. The stock solution was diluted with DMSO to prepare a stock solution having a 30-fold concentration of the required range. Subsequently the resultant stock solution was diluted to 1:3 to prepare a stock solution having a 10-fold concentration of the required range, and an aliquot of 5 μL of each solution was used for every reaction with 50 μL. During the continuous dilution of all compounds, the final DMSO concentration was maintained at 3% and the solubility of compounds was maximized. Compounds were routinely tested at a final concentration ranging from 300 μmol/L to 0.001 μmol/L, but were sometimes tested at a lower concentration depending upon their activity. (MAPKAP-K2 Enzyme Activity Assay)
The kinase reaction was carried out using a 96-well round-bottomed polypropylene microplate. MAPKAP-Kinase 2 was diluted to 0.5 mU/μL with diluent buffer (50 mmol/L Tris/HCl (pH7.5), 0.1 mmol/L EGTA, 0.1% (v/v) β-mercaptoethanol, and 1 mg/mL BSA). To each well was added 5 μL of a compound or 30% DMSO and subsequently 25 μL of substrate cocktail (final concentration: 10 μmol/L ATP, 30 μmol/L peptide (KKLNRTLSVA), 50 mmol/L 33P-γ-ATP/Tris solution of (pH 7.5, 0.5 μCi), 0.1 mmol/L EGTA, 10 mmol/L magnesium acetate and 0.1% β-mercaptoethanol). To each well was added 20 μL of an enzyme solution or 20 μL of a diluent buffer without contabing enzyme to initiate the reaction, After shaking the plate for 10 sec, it was fibber allowed to stand at room temperature for 30 min. The reaction was terminated with 50 μL of a 150 mmol/L phosphoric acid solution. Then, 90 μL of a reaction mixture solution was transferred to a 96-well P81 filter plate (Whatmann), and incubation was performed at room temperature for 5 min. Subsequently, the filter plate was washed 4 times with 200 μL of a 75 mmol/L phosphoric acid solution per well through a plate suction manifold (Millipore), followed by further drying in an oven for 2 to 3 hrs. Next, after adding Packard Microscint “0” (30 μL) to each well and shaking the plate for 30 min, scintillation measurement was performed using a Packard TopCount scintillation counter. […]

The target of assay [2] is T1, MAPKAP-K2. The assay is described as follows: MAPKAP-K2 enzyme activity inhibition assay, Method B (33P-ATP, MultiScreen-PH plate). The format is biochemical. The note with it: recombinant human MAPKAP-K2, 0.5% DMSO, 30 min room temperature, read-out: Inhibitory activity (MAPKAP-K2 IC50 class). The method, then: as §1
A compound was dissolved in […] to make its concentration to 20 mmol/L, and the resultant solution was stored at −20° C. The stock solution was sequentially diluted with DMSO to prepare a solution having a 200-fold concentration of the required range. Further the solution was diluted with water to 1:20 to prepare a solution having a 10-fold concentration of the required range, and an aliquot of 5 μL of each solution was used for every reaction with 50 μL. During the continuous dilution of all compounds, the final DMSO concentration was maintained at 0.5%. Compounds were routinely tested at a final concentration ranging from 100 μmol/L to 0.03 μmol/L, but were sometimes tested at a lower concentration depending upon their activity.
The reaction was initiated by adding 25 μL of a peptide substrate solution [60 μmol/L substrate peptide, 20 μmol/L ATP, 50 mmol/L Tris buffer (pH 7.5), 0.1 mmol/L EGTA, 0.1% β-mercaptoetanol, 20 mmol/L magnesium acetate, and 0.1 μCi [γ-33P]ATP (specific radio activity: approximately 110 TBq/mmol)] to 5 μL of a 5% DMSO solution of the test compound and subsequently adding 20 μL of a MAPKAP-K2 enzyme solution [10 mU recombinant human MAPKAP-K2, 50 mmol/L Tris buffer (pH 7.5), 0.1 mmol/L EGTA, 0.1% β-mercaptoethanol, 0.1% BSA]. After performing the reaction for 30 min at room temperature, an equivalent volume of 200 mmol/L phosphoric acid solution was added to terminate the reaction. Subsequently, 90 μL of the reaction product was adsorbed on a MultiScreen-PH Plate (Millipore) and then rinsed with 100 mmol/L phosphoric acid solution. After drying the plate, 30 μL of MicroScint-O (Packard BioScience) was added, and further the count per minute was measured by a scintillation counter to determine the inhibitory activity. The substrate peptide was Lys-Lys-Leu-Asn-Arg-Tlr-Leu-Ser-Val-Ala.
• % Control=(X−B)/(Tot−B)×100 • % Inhibition=100—% Control • X=count per minute of a test compound well • B=count per minute of a well without containing enzyme • Tot=count per minute of a well with DMSO solvent only, without containing the test compound (MAPKAP-K2 inhibitory activity) • IC50 value=the compound concentration at 50% inhibition

T1 sequence (P49137 whole entry): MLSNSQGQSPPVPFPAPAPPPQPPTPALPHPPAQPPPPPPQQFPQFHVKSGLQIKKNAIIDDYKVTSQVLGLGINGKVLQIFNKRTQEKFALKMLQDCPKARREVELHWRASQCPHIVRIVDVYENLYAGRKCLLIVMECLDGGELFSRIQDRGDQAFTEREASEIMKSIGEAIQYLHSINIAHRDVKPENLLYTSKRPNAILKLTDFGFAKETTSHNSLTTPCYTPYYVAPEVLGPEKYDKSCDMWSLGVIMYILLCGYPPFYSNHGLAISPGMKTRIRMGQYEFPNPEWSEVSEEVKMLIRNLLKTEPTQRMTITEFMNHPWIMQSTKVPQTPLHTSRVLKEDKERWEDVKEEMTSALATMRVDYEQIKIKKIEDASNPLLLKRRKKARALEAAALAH

Regarding `C=CCC1CC(N)CCC1Oc1nc2ccnn2c(Nc2ccc(OCC)cc2)c1C` (stereo not shown) [compound 25], the IC50 (in general, the point on the concentration scale where inhibition reaches its midpoint) on MAPKAP-K2 [1] was in the range of 2 to 20 µM.

Regarding `C=CCC1CC(NC)CCC1Oc1nc2ccnn2c(Nc2ccc(OCC)cc2)c1C` (stereo not shown) [compound 26], on MAPKAP-K2 [1], the IC50 lay within 2 to 20 µM.

In the case of `CCOc1ccc(Nc2c(C)c(SC3CCCNC3)nc3ccnn23)cc1` (stereo not shown) [compound 80], the IC50 on MAPKAP-K2 [1] was in the range of 2 to 20 µM.

In the case of `CCOc1ccc(Nc2c(C)c(SCCN)nc3ccnn23)cc1` [compound 81], the IC50 at MAPKAP-K2 [1] was 2 to 20 µM.

As for `CCOc1ccc(Nc2c(C)c(O[C@@H]3CNCC[C@H]3CC(=O)NC)nc3ccnn23)cc1` [compound 83], the IC50 on MAPKAP-K2 [2] was 2 to 20 µM.

As for `CCOc1ccc(Nc2c(C)c(O[C@@H]3CNCC[C@H]3CC(=O)N(C)C)nc3ccnn23)cc1` [compound 84], at MAPKAP-K2 [2], the IC50 was in the range of 2 to 20 µM.

Regarding `CCOc1ccc(Nc2c(C)c(O[C@@H]3CNCC[C@H]3CC(=O)NCc3ccccc3)nc3ccnn23)cc1` [compound 85], the concentration for half-maximal inhibition (IC50) at MAPKAP-K2 [2] lay within 2 to 20 µM.

With `CCOc1ccc(Nc2c(C)c(O[C@@H]3CNCC[C@H]3CC(=O)NC3CC3)nc3ccnn23)cc1` [compound 86], the 50% inhibitory concentration (IC50) on MAPKAP-K2 [2] fell in the range of 2 to 20 µM.

In the case of `CCOc1ccc(Nc2c(C)c(O[C@@H]3CN(C(=O)OCc4ccccc4)CC[C@H]3CC(=O)NCc3ccccc3)nc3ccnn23)cc1` [compound 87], at MAPKAP-K2 [2], the IC50 was in the range of 20 to 100 µM.

As for `Cc1c(O[C@H]2CC[C@@H](N)CC2)nc2ccnn2c1Nc1ccc(OCCN2CCOCC2)cc1` [compound 90], the IC50 on MAPKAP-K2 [2] was no more than 2 µM.

As to `CC(=O)c1ccc(-c2ccc(Nc3c(C)c(O[C@H]4CC[C@@H](N)CC4)nc4ccnn34)cc2)s1` [compound 92], the half-maximal inhibitory concentration (IC50) at MAPKAP-K2 [2] was no more than 2 µM.

`CCc1c(O[C@H]2CC[C@@H](N)CC2)nc2ccnn2c1Nc1ccc(I)cc1` [compound 102]: the IC50 on MAPKAP-K2 [2] was no more than 2 µM.

As to `CCOc1ccc(Nc2c(C)c(OC3CCNCC3)nc3ccnn23)cc1` [compound 239], the IC50 at MAPKAP-K2 [2] is no more than 2 µM.

As for `Cc1c(OC2CCNCC2)nc2ccnn2c1Nc1ccc(OCc2ccccc2)cc1` [compound 240], the half-maximal inhibitory concentration (IC50) on MAPKAP-K2 [2] is 2 to 20 µM.

Consider `CCOc1ccc(Nc2c(C)c(OCC3CCCNC3)nc3ccnn23)cc1` (stereo not shown) [compound 244], for which the IC50 on MAPKAP-K2 [2] is 2 to 20 µM.

In the case of `CCOc1ccc(Nc2c(C)c(OCC3CCCCN3)nc3ccnn23)cc1` (stereo not shown) [compound 245], at MAPKAP-K2 [2], the half-inhibitory concentration (IC50) fell in the range of 20 to 100 µM.

On to `CCOc1ccc(Nc2c(C)c(OC3CCN(C)CC3)nc3ccnn23)cc1` [compound 253], for which the IC50 at MAPKAP-K2 [2] is 2 to 20 µM.

For the compound `CCOc1ccc(Nc2c(C)c(OC3CCN(C)C3)nc3ccnn23)cc1` (stereo not shown) [compound 256], on MAPKAP-K2 [2], the IC50 lay within 20 to 100 µM.

Consider `CCOc1ccc(Nc2c(C)c(OCC(C)=O)nc3ccnn23)cc1` [compound 259], for which the half-maximal inhibitory concentration (IC50) at MAPKAP-K2 [2] is 20 to 100 µM.

Consider `CCOc1ccc(Nc2c(C)c(OC[C@H]3CCCN3)nc3ccnn23)cc1` [compound 260], for which the IC50 at MAPKAP-K2 [2] is 20 to 100 µM.

As for `CCOc1ccc(Nc2c(C)c(OC[C@@H]3CCCN3)nc3ccnn23)cc1` [compound 261], at MAPKAP-K2 [2], the IC50 is 20 to 100 µM.

Take `CCOc1ccc(Nc2c(C)c(OCCNC)nc3ccnn23)cc1` [compound 263]: at MAPKAP-K2 [2], the IC50 was 20 to 100 µM.

`CCOc1ccc(Nc2c(C)c(O[C@@H]3CCNC3)nc3ccnn23)cc1` [compound 264]: the 50% inhibitory concentration (IC50) at MAPKAP-K2 [2] lay in the range of 20 to 100 µM.

For `Cc1c(O[C@H]2CC[C@@H](N)CC2)nc2ccnn2c1NCc1ccccc1` [compound 268], on MAPKAP-K2 [2], the IC50 lay in the range of 2 to 20 µM.

On to `Cc1c(OC2CCCNC2)nc2ccnn2c1NCc1ccccc1` (stereo not shown) [compound 269], for which the IC50 at MAPKAP-K2 [2] lay in the range of 2 to 20 µM.

`Cc1c(OCCN)nc2ccnn2c1NCc1ccccc1` [compound 270]: the IC50 on MAPKAP-K2 [2] was 20 to 100 µM.

In the case of `Cc1c(O[C@H]2CC[C@@H](N)CC2)nc2ccnn2c1NC1CCCC1` [compound 271], at MAPKAP-K2 [2], the half-inhibitory concentration (IC50) is 2 to 20 µM.

Regarding `Cc1c(OC2CCCNC2)nc2ccnn2c1NC1CCCC1` (stereo not shown) [compound 272], the IC50 at MAPKAP-K2 [2] lay within 2 to 20 µM.

Turning to `CCOc1ccc(Nc2c(-c3ccccc3)c(OCCN)nc3ccnn23)cc1` [compound 273], the concentration for half-maximal inhibition (IC50) at MAPKAP-K2 [2] is 20 to 100 µM.

Take `N[C@H]1CC[C@@H](Oc2nc3ccnn3c(Nc3ccc(OCc4ccccc4)cc3)c2-c2ccccc2)CC1` [compound 274]: the IC50 at MAPKAP-K2 [2] was in the range of 2 to 20 µM.

Regarding `c1ccc(COc2ccc(Nc3c(-c4ccccc4)c(OC4CCCNC4)nc4ccnn34)cc2)cc1` (stereo not shown) [compound 275], at MAPKAP-K2 [2], the IC50 was in the range of 2 to 20 µM.
